According to patent publication US8216551B2, “In vivo system to monitor tissue responses in birds” (The Board of Trustees of the University of Arkansas, priority 2008, dated 2012):

B1: IFN-γ: recombinant chicken IFN-γ (protein, UniProt P49708 20-164, looked up)
Interferon gamma: HTASSLNLVQLQDDIDKLKADFNSSHSDVADGGPIIVEKLKNWTERNEKRIILSQIVSMYLEMLENTDKSKPHIKHISEELYTLKNNLPDGVKKVKDIMDLAKLPMNDLRIQRKAANELFSILQKLVDPPSFKRKRSQSQRRCNC

Tests used:
feather pulp [1] = assay: Local tissue response to LPS or PHA injected into feathers and wing webs; format: in vivo, chicken; conditions: for composition of the infiltrate / MHC class II expression: 6 hours post-injection; for MHC class II expression: immunohistochemistry; for leukocyte infiltration: in vivo
feather pulp [2] = assay: Local tissue response to injection of IFN-γ into growing feathers; format: in vivo, chicken; conditions: for mean score of extent of mononuclear infiltration: score 1=no infiltration

Row | Molecule | composition of the infiltrate (feather pulp [1]) | MHC class II expression (feather pulp [1]) | leukocyte infiltration (feather pulp [1]) | mean score of extent of mononuclear infiltration (feather pulp [2]; 6 h post-injection, 5=extensive infiltration throughout the entire pulp) | mean score of extent of mononuclear infiltration (feather pulp [2]; 1 day post-injection, 5=extensive) | mean score of extent of mononuclear infiltration (feather pulp [2]; 2 days post-injection, 5=extensive) | mean score of extent of mononuclear infiltration (feather pulp [2]; 3 days post-injection, 5=extensive) | histological analysis, cell infiltration into the feather pulp (feather pulp [2]; by 6 h, preliminary)
1 | lipopolysaccharide [LPS] | primarily of heterophils | noticeable increase | extensive leukocyte infiltration | – | – | – | – | –
2 | phytohaemagglutinin [PHA] | heterophils and mononuclear cells | substantially increased | extensive leukocyte infiltration | – | – | – | – | –
3 | B1 | – | – | – | 1.6±0.1 | 4.0±0.5 | 3.2±0.6 | 3.0±0.9 | mononuclear cell infiltration into the feather pulp, but no granulocytes
